# Like-named read-outs stand apart in the source and are kept apart here.
# Legend:
# rabbit eye = conditions: cited from earlier work
# [1] = pH 6.36
# [2] = no antioxidants, predicted GHS class, cited from earlier work
# [3] = OS2 (OPTISAFE2), OPTISAFE formulation with antioxidants; conditions: for OS2 Cons: majority prediction of the triplicate assays; for OS2 R1 / 0S2 R1: repeat 1, with antioxidants; for OS2 R1 / OS2 R3 / 0S2 R1: predicted GHS class; for OS2 R3: repeat 3, with antioxidants
# [4] = Table 7B, based on the Draize data
# [5] = Table 7B, consensus of past application domain study
# [6] = Table 7A, based on the Draize data
# [7] = Table 7A, consensus of past transferability study
compound,measurement,setting,value
c1c[nH]cn1 [Imidazole],In vivo GHS,"rabbit eye; rabbit, in vivo",1 (key: NC (not classified as an irritant); 2A (reversal by 7 days); 2B (reversal by 14 days); 1 (no reversal by 21 days))
CC(C)C=O [Isobutyraldehyde],OS2 Cons,[1],1
same,OS2 R3,[1],1
same,In vivo GHS,"rabbit eye; rabbit, in vivo",2B (key: NC (not classified as an irritant); 2A (reversal by 7 days); 2B (reversal by 14 days); 1 (no reversal by 21 days))
OC1CCCC1 [Cyclopentanol],OS2 Cons,[1],1
same,OS2 R1,[1],1
same,OS2 R3,[1],1
same,In vivo GHS,rabbit eye; [4],2A (2A (reversal by 7 days))
same,OS Cons,[2]; [5],1
COC(=O)CC#N [Methyl cyanoacetate],0S2 R1,[1],1
same,OS2 Cons,[1],1
same,OS2 R3,[1],1
same,In vivo GHS,rabbit eye; [6],2A (2A (reversal by 7 days))
same,OS Cons,[2]; [7],1
CCCCCCCCCCCC(=O)O [Lauric acid],OS2 Cons,[1],1
same,OS2 R1,[1],1
same,OS2 R3,[1],1
same,In vivo GHS,rabbit eye; [4],1 (1 (no reversal by 21 days))
same,OS Cons,[2]; [5],1
OCc1cccc(Oc2ccccc2)c1 [3-Phenoxybenzyl alcohol],OS2 Cons,[1],2
same,OS2 R1,[1],2
same,OS2 R3,[1],2
same,OS Cons,[2]; [5],2
CC(C)(O)CCC(C)(C)O,OS2 Cons,[3]; Table 7B,1
same,OS2 R1,[3]; Table 7B,2
same,OS2 R3,[3]; Table 7B,1
CCCCCCCCOCCCCCCCC [Dioctyl ether],known ocular irritancy (FIG. 4 legend),"rabbit eye; rabbit, in vivo",Nonirritants
CC(C)O [Isopropanol],OS2 Cons,[1],2
same,OS2 R1,[1],2
same,OS2 R3,[1],2
same,In vivo GHS,rabbit eye; [4],2A (2A (reversal by 7 days))
same,OS Cons,[2]; [5],2
"CCCCC(CC)COC(=O)CC(C(=O)OCC(CC)CCCC)S(=O)(=O)[O-].[Na+] (stereo not shown) [Butanedioic acid, sulfo-, 1,4-bis(2-ethylhexyl) ester, sodium salt]",OS2 Cons,[1],2
same,OS2 R1,[1],2
same,OS2 R3,[1],2
same,In vivo GHS,rabbit eye; [4],1 (1 (no reversal by 21 days))
same,OS Cons,[2]; [5],2
Cc1ccc(C=S)cc1 [p-Methyl thiobenzaldehyde],OS2 Cons,[1],1
same,OS2 R1,[1],1
same,OS2 R3,[1],1
same,OS Cons,[2]; [5],1
O=P(O)(OCc1ccccc1)OCc1ccccc1 [Dibenzyl phosphate],OS2 Cons,[3]; Table 7A,1
same,0S2 R1,[3]; Table 7A,1
same,OS2 R3,[3]; Table 7A,1
CCCCCCCCO [n-Octanol],OS2 Cons,[1],2
same,OS2 R1,[1],2
same,OS2 R3,[1],2
same,OS2 score average,[1],19.1
same,OS2 scores ranged from,[1],16.5-22.8
same,Score = Average score,[1],19.1
same,In vivo GHS,rabbit eye; [4],2A (2A (reversal by 7 days))
same,known ocular irritancy (FIG. 4 legend),"rabbit eye; rabbit, in vivo",Irritants
same,OS Cons,[2]; [5],2
OC1CCCCC1 [Cyclohexanol],in vivo GHS,"rabbit eye; Table 3, eye irritation class",1 (1 (no reversal by 21 days))
same,GHS,rabbit eye; Table 4,Cat. 1
same,In vivo GHS,rabbit eye; [4],1 (1 (no reversal by 21 days))
"O=C(Cl)c1c(Cl)cccc1Cl [2,6-Dichlorobenzoyl chloride]",OS2 Cons,[1],1
same,OS2 R1,[1],1
same,OS2 R3,[1],1
same,In vivo GHS,rabbit eye; [4],2A (2A (reversal by 7 days))
same,OS Cons,[2]; [5],1
O=C([O-])CCl.[Na+] [Sodium chloroacetate],In vivo GHS,rabbit eye; [6],2B (2B (reversal by 14 days))
C=CCO [Allyl alcohol],In vivo GHS,rabbit eye; [4],2A (2A (reversal by 7 days))
same,OS Cons,[2]; [5],1
same,OS2 Cons,[3]; Table 7B,1
same,OS2 R1,[3]; Table 7B,1
same,OS2 R3,[3]; Table 7B,1
CCCCCCBr [n-Hexyl bromide],known ocular irritancy (FIG. 4 legend),"rabbit eye; rabbit, in vivo",Nonirritants
"O=C=Nc1ccc(Cl)c(Cl)c1 [3,4-Dichlorophenyl isocyanate]",In vivo GHS,rabbit eye; [6],1 (1 (no reversal by 21 days))
same,OS Cons,[2]; [7],1
same,OS2 Cons,[3]; Table 7A,1
same,0S2 R1,[3]; Table 7A,1
same,OS2 R3,[3]; Table 7A,1
CCOC(=O)C(C)C(C)=O (stereo not shown) [Ethyl-2-methyl acetoacetate],In vivo GHS,rabbit eye; [4],2B (2B (reversal by 14 days))
same,OS Cons,[2]; [5],1
same,OS2 Cons,[3]; Table 7B,1
same,OS2 R1,[3]; Table 7B,1
same,OS2 R3,[3]; Table 7B,1
COC(C)=O [Methyl acetate],OS2 Cons,[1],2
same,OS2 R1,[1],2
same,OS2 R3,[1],2
same,In vivo GHS,rabbit eye; [4],2A (2A (reversal by 7 days))
same,known ocular irritancy (FIG. 4 legend),"rabbit eye; rabbit, in vivo",Irritants
same,OS Cons,[2]; [5],2
O.O.O.O.[Na+].[O-]B1OO1 [Sodium perborate tetrahydrate],OS2 Cons,[3]; Table 7B,1
same,OS2 R1,[3]; Table 7B,1
same,OS2 R3,[3]; Table 7B,1
"S=C([S-])NCCNC(=S)[S-].[Mn+2] [Maneb (solid), Maneb]",In vivo GHS,"rabbit eye; rabbit, in vivo",2B (key: NC (not classified as an irritant); 2A (reversal by 7 days); 2B (reversal by 14 days); 1 (no reversal by 21 days))
"O=C(O)CCSSCCC(=O)O [3,3-Dithiodipropionic acid]",OS2 Cons,[3]; Table 7A,1
same,0S2 R1,[3]; Table 7A,1
same,OS2 R3,[3]; Table 7A,1
CC(=O)CC(=O)OC(C)C [Isopropyl acetoacetate],OS2 Cons,[1],1
same,OS2 R1,[1],1
same,OS2 R3,[1],1
same,In vivo GHS,rabbit eye; [4],2B (2B (reversal by 14 days))
same,OS Cons,[2]; [5],1
N#CCCCl [3-Chloropropionitrile],In vivo GHS,rabbit eye; [4],2B (2B (reversal by 14 days))
CCCCCCCCCCCCCC(=O)OC(C)C [Isopropyl myristae],known ocular irritancy (FIG. 4 legend),"rabbit eye; rabbit, in vivo",Nonirritants
CC(C)=O [Acetone],In vivo GHS,rabbit eye; [4],2A (2A (reversal by 7 days))
same,OS Cons,[2]; [5],2
same,OS2 Cons,[3]; Table 7B,2
same,OS2 R1,[3]; Table 7B,2
same,OS2 R3,[3]; Table 7B,2
"CCN(CC)C(=O)c1cccc(C)c1 [n,n-Diethyl-m-toluamide]",In vivo GHS,rabbit eye; [4],2B (2B (reversal by 14 days))
same,known ocular irritancy (FIG. 4 legend),"rabbit eye; rabbit, in vivo",Irritants
same,OS Cons,[2]; [5],2
same,OS2 Cons,[3]; Table 7B,1
same,OS2 R1,[3]; Table 7B,1
same,OS2 R3,[3]; Table 7B,1
Sodium lauroyl sarcosinate [Sodium lauroyl sarcosinate (10%)],"OS2 result, expanded surfactant study",[3]; due to assay inhibition,CNM
CC(C=O)Cc1ccc(C(C)(C)C)cc1 (stereo not shown) [Protectol PP],OS2 Cons,[3]; Table 7B,1
same,OS2 R1,[3]; Table 7B,1
same,OS2 R3,[3]; Table 7B,1
Diethylaminopropionitrile,In vivo GHS,rabbit eye; [4],1 (1 (no reversal by 21 days))
same,OS Cons,[2]; [5],CNM
same,OS2 Cons,[3]; Table 7B,1
same,OS2 R1,[3]; Table 7B,2
same,OS2 R3,[3]; Table 7B,1
CC(C)CO [Isobutanol],0S2 R1,[1],1
same,OS2 Cons,[1],1
same,OS2 R3,[1],1
same,In vivo GHS,rabbit eye; [6],2A (2A (reversal by 7 days))
same,OS Cons,[2]; [7],1
CC(O)C(=O)O (stereo not shown) [Lactic Acid],In vivo GHS,"rabbit eye; rabbit, in vivo",1 (key: NC (not classified as an irritant); 2A (reversal by 7 days); 2B (reversal by 14 days); 1 (no reversal by 21 days))
O=C(Nc1ccc(Cl)cc1)Nc1ccc(Cl)c(Cl)c1 [Triclocarban],OS Cons,[2]; [5],CNM
same,OS2 Cons,[3]; Table 7B,CNM
same,OS2 R1,[3]; Table 7B,CNM
same,OS2 R3,[3]; Table 7B,CNM
Cc1ncnc2nc[nH]c12 [6-Methyl purine],In vivo GHS,rabbit eye; [4],2B (2B (reversal by 14 days))
same,OS2 Cons,[3]; Table 7B,2/1
same,OS2 R1,[3]; Table 7B,2/1
same,OS2 R3,[3]; Table 7B,1
CCCOCC(C)O (stereo not shown) [Propasol solvent P],In vivo GHS,rabbit eye; [6],2A (2A (reversal by 7 days))
same,OS Cons,[2]; [7],2
same,OS2 Cons,[3]; Table 7A,2
same,0S2 R1,[3]; Table 7A,2
same,OS2 R3,[3]; Table 7A,2
CCCCCCO [n-Hexanol],OS2 Cons,[1],2
same,OS2 R1,[1],2
same,OS2 R3,[1],1
same,In vivo GHS,rabbit eye; [4],2A (2A (reversal by 7 days))
same,OS Cons,[2]; [5],2
C=C1C2CCC(C2)C1(C)C (stereo not shown) [Camphene],0S2 R1,[1],2
same,OS2 Cons,[1],2
same,OS2 R3,[1],2
Nc1ncccc1O [2-Amino-3-pyridinol],In vivo GHS,rabbit eye; [4],2A (2A (reversal by 7 days))
same,OS Cons,[2]; [5],CNM
CCCC(C)CO (stereo not shown) [2-Methyl-1-pentanol],0S2 R1,[1],2
same,OS2 Cons,[1],2
same,OS2 R3,[1],2
same,In vivo GHS,rabbit eye; [6],2B (2B (reversal by 14 days))

# From patent publication US12115147B2, “Formulations and methods related to eye irritation” (Lebrun Labs LLC, priority 2020, dated 2024)
